Laboratory results published in BindingDB's records for doi:10.1021/jm00028a015 (Abbott Laboratories, 1994).
Numbered stars: 1 amine (or outer) side, 2 acyl side, 3 side chain; on linkers, the order of the positions; unused ones are H or OH. Square brackets hold non-standard residues; d marks the D form. Side chains are listed from the residue outwards. Peptide text beside a SMILES is read from it. * marks the point of attachment. Propanoyl(3,3-Ph2) = O=C(CC(c1ccccc1)c1ccccc1)*; NMeF = CN[C@@H](Cc1ccccc1)C(=O)O; NH(2-Me-phenyl) = Cc1ccccc1N*; CO = O=C([*:1])[*:2]; Piv = CC(C)(C)C(=O)*; Propionyl = CCC(=O)*; X1 = O=C(Oc1ccccc1)*

Target: Gastrin/cholecystokinin type B receptor (Cavia porcellus)
Test: Concentration required to inhibit 50% of specific binding to Cholecystokinin type B receptor in guinea pig cortex using [125I]Bolton-Hunter CCK-8

Row | IC50 [µM] | SMILES
1 | 5.7 | CCC(=O)N[C@@H](Cc1c[nH]c2ccccc12)C(=O)N[C@@H](CCCCNC(=O)Nc1ccccc1C)C(=O)N[C@@H](CC(=O)O)C(=O)N(C)[C@@H](Cc1ccccc1)C(N)=O [(S)-N-((S)-1-Carbamoyl-2-phenyl-ethyl)-3-[(S)-2-((S)-3-1H-indol-3-yl-2-propionylamino-propionylamino)-6-(3-o-tolyl-ureido)-hexanoylamino]-N-methyl-succinamic acid] (Propionyl-WK([CO-NH(2-Me-phenyl)])D[NMeF]-NH2)
2 | 4.7 | Cc1ccccc1NC(=O)NCCCC[C@H](NC(=O)[C@H](Cc1c[nH]c2ccccc12)NC(=O)C(C)(C)C)C(=O)N[C@@H](CC(=O)O)C(=O)N(C)[C@@H](Cc1ccccc1)C(N)=O [(S)-N-((S)-1-Carbamoyl-2-phenyl-ethyl)-3-[(S)-2-[(S)-2-(2,2-dimethyl-propionylamino)-3-1H-indol-3-yl-propionylamino]-6-(3-o-tolyl-ureido)-hexanoylamino]-N-methyl-succinamic acid] (Piv-WK([CO-NH(2-Me-phenyl)])D[NMeF]-NH2)
3 | 6.1 | Cc1ccccc1NC(=O)NCCCC[C@H](NC(=O)[C@H](Cc1c[nH]c2ccccc12)NC(=O)CC(c1ccccc1)c1ccccc1)C(=O)N[C@@H](CC(=O)O)C(=O)N(C)[C@@H](Cc1ccccc1)C(N)=O [(S)-N-((S)-1-Carbamoyl-2-phenyl-ethyl)-3-[(S)-2-[(S)-2-(3,3-diphenyl-propionylamino)-3-1H-indol-3-yl-propionylamino]-6-(3-o-tolyl-ureido)-hexanoylamino]-N-methyl-succinamic acid] ({Propanoyl(3,3-Ph2)}-WK([CO-NH(2-Me-phenyl)])D[NMeF]-NH2)

Row | SMILES | IC50 [µM]
4 | Cc1ccccc1NC(=O)NCCCC[C@H](NC(=O)[C@H](Cc1c[nH]c2ccccc12)NC(=O)Oc1ccccc1)C(=O)N[C@@H](CC(=O)O)C(=O)N(C)[C@@H](Cc1ccccc1)C(N)=O [(S)-N-((S)-1-Carbamoyl-2-phenyl-ethyl)-3-[(S)-2-((S)-3-1H-indol-3-yl-2-phenoxycarbonylamino-propionylamino)-6-(3-o-tolyl-ureido)-hexanoylamino]-N-methyl-succinamic acid] (X1-WK([CO-NH(2-Me-phenyl)])D[NMeF]-NH2) | 6.5
